Experimental data from patent US20040006127A1, “Activation of the cystic fibrosis transmembrane conductance regulator chloride channel” (priority 2000, published 2004).
Entries after “also recorded” stand apart in the source; their conditions may differ. Blank lines part the entries; values can stand above or below the compound they belong to.

What was measured:
wild-type human CFTR [1] = biological target: T1, wild-type human CFTR (Homo sapiens, UniProt P13569); experiment: Single-channel recording of CFTR Cl- channels in excised inside-out membrane patches from C127 cells; format: biochemical
T1 construct: expressed in transfected cells

wild-type human CFTR [2] = biological target: T1, wild-type human CFTR; experiment: CFTR Cl- currents in excised inside-out membrane patches from C127 cells (time course, I-V studies); format: biochemical; details: for effect on channel activity at positive voltages: phloxine B 40 μM; for concentration that maximally stimulated channel activity: excised membrane patches
Protocol: For electrophysiological experiments, we used mouse mammary epithelial cells (C127 cells) stably expressing wild-type human CFTR or ΔF508, the most common CF-associated mutation (11). C127 cells expressing wild-type CFTR were cultured as previously described (12). C127 cells expressing ΔF508 were cultured at 28° C., to overcome the processing defect of ΔF508 and promote bs delivery to the cell membrane (13). Cells were seeded onto glass coverslips and used within either 48 h (wild-type CFTR) or 1 week (ΔF508).
CFTR Cl^− channels were recorded in excised inside-out membrane patches using an Axopatch 200A patch-clamp amplifier (Axon Instruments Inc., Foster City, USA) and pCLAMP data acquisition and analysis software (version 6.03, Axon Instruments Inc.) as previously described (12,14). The established sign convention was used throughout; currents produced by positive charge moving from intra- to extracellular solutions (anions moving in the opposite direction) are shown as positive currents.
The pipette (extracellular) solution contained (in mM): 140 N-methyl-D-glucamine (NMDG), 140 aspartic acid, 5 CaCl2, 2 MgSO4, and 10 N-tris[hydroxymethyl]methyl-2-aminoethanesulphonic acid (Tes), pH 7.3 with Tris ([Cl^−], 10 mM). The bath (intracellular) solution contained (in mM): 140 NMDG, 3 MgCl2, 1 ethylene glycol-bis(β-aminoethylether)-N,N,N′,N′-tetraacetic acid caesium salt (CsEGTA), and 10 Tes, pH 7.3 with HCl, ([Cl^−], 147 mM; [Ca^2+]free, <10^−8 M). All experiments were conducted at 37° C.
After excision of membrane patches from C127 cells. CFTR Cl^− channels were activated by the addition of the catalytic subunit of protein kinase A (PKA; 75 nM) and ATP (1.0 mM) to the intracellular solution within 5 min of patch excision. […] PKA was maintained in the intracellular solution for the duration of experiments. Voltage was −50 mV. […] The number of channels per patch was determined from the maximum number of simultaneous channel openings observed during the course of an experiment, as previously described (12). […] To investigate whether modulation of CFTR by fluorescein derivatives was voltage dependent, we used a voltage ramp protocol. Macroscopic current-voltage (I-V) relationships were obtained. In the absence and presence of fluorescein derivatives by averaging currents generated by 15-30 ramps of voltage, each of 2 s duration; holding voltage was −50 mV. Basal currents recorded in the absence of PKA and ATP were subtracted from those recorded in the absence and presence of fluorescein derivatives to determine the effect of fluorescein derivatives on CFTR Cl^− currents,
CFTR Cl^− currents were initially recorded on digital audiotape using a digital tape recorder (Biologic Scientific Instruments, model DTR-1204; lntracel Ltd, Royston, UK) at a bandwidth of 10 kHz. On playback, records were filtered with an eight-pole Bessel filter (Frequency Devices, model 902LPF2: Scensys Ltd, Aylesbury, UK) at a corner frequency of 500 Hz and acquired using a Digidata 1200 interface (Axon Instruments Inc.) and pCLAMP at sampling rates of either 2.5 kHz (time course studies) or 5.0 kHz (single-channel studies).
In time course studies, each point is the average current for a 4 s period with data points collected continuously, no data were collected while solutions were changed. Average current (I) for a specific intervention was determined as the average of all the data points collected during the intervention. The relationship between drug concentration and CFTR inhibition was fitted to the Hill equation:
IDrug/IControl=1/{1+([Drug]/Ki)^n}, (1)
where [Drug] is the concentration of drug, IDrug/IControl is the fractional current at the indicated drug concentration relative to that in the same solution in the absence of added drug, Ki is the drug concentration causing half-maximal inhibition, and n is the slope factor (Hill coefficient). Mean data were fitted to a linear form of equation (1) using linear least-squares regression to yield Ki and n values.

KATP currents = biological target: T2, KATP currents (Homo sapiens, UniProt Q09428+Q14654); details: added to the extracellular solution; de Weille et al. (10); cited from earlier work
T2 construct: host or cells: pancreatic β-cells

[3] = biological target: T3, endogenous CFTR Cl- channels in Type I MDCK cells (Canis lupus familiaris, UniProt Q5U820); experiment: cAMP-stimulated iodide efflux from Type I MDCK cells; format: cell-based, canine
T3 construct: Type I MDCK cells are kidney epithelial cells that endogenously express the CFTR Cl^− channel; endogenous in cells; host or cells: Type I MDCK cells
Protocol: For iodide efflux experiments, we used Type I Mardin-Darby canine kidney (MDCK) cells. MDCK cells were cultured in MDCK media (a 1:1 mixture of Dulbecco's Modified Eagle Medium (DMEM) and Ham's F-12 nutrient medium supplemented with 10% fetal bovine serum, 100 U ml^1 penicillin, and […] ml^−streptomycin; all from Life Technologies Ltd, Paisley, UK) at 37° C. in a humidified atmosphere of 5% CO2. Cells were seeded onto 60 mm plastic culture dishes and used 72-96 h later.
Type I MDCK cells (≧90% confluent) were incubated for 1 h in a loading buffer containing (mM): 136 Nal, 3 KNO3, 2 Ca(NO3)2, 11 glucose, and 20 Hepes, adjusted to pH 7.4 with NaOH. […] The efflux buffer was changed at 1 min intervals over the duration of the experiment, which typically lasted 18 min. Four minutes after anion substitution, cells were exposed to agonists for 4 min. The amount of iodide in each 2.5 ml sample of efflux buffer was determined using an iodide-selective electrode (Russell pH Ltd. Auchtermuchty, UK). Cells were loaded and experiments performed at room temperature (23° C.).
Type I MDCK cells are kidney epithelial cells that endogenously express the CFTR Cl^− channel (20).
Nitrate was substituted for iodide in the bathing medium at t=−4 min and iodide efflux was monitored at 1 min intervals, for the duration of the experiment.

ΔF508 CFTR = biological target: T4, ΔF508 CFTR (Homo sapiens, UniProt P13569, DEL508-508); experiment: Single-channel recording of ΔF508 CFTR Cl- channels in excised patches from C127 cells grown at 28° C.; format: biochemical; details: 1 μM
T4 construct: expressed in transfected cells

[4] = biological target: wild-type CFTR Cl- channels (Homo sapiens, UniProt P13569); details: reported by Wang et al. (18); cited from earlier work
[5] = 1 μM, ATP 0.3 mM, PKA 75 nM, -50 mV
[6] = eosin Y 100 μM, symmetrical 147 mM Cl-, ATP 1 mM

T4 sequence (P13569 with tags, fused parts or gaps DEL508-508): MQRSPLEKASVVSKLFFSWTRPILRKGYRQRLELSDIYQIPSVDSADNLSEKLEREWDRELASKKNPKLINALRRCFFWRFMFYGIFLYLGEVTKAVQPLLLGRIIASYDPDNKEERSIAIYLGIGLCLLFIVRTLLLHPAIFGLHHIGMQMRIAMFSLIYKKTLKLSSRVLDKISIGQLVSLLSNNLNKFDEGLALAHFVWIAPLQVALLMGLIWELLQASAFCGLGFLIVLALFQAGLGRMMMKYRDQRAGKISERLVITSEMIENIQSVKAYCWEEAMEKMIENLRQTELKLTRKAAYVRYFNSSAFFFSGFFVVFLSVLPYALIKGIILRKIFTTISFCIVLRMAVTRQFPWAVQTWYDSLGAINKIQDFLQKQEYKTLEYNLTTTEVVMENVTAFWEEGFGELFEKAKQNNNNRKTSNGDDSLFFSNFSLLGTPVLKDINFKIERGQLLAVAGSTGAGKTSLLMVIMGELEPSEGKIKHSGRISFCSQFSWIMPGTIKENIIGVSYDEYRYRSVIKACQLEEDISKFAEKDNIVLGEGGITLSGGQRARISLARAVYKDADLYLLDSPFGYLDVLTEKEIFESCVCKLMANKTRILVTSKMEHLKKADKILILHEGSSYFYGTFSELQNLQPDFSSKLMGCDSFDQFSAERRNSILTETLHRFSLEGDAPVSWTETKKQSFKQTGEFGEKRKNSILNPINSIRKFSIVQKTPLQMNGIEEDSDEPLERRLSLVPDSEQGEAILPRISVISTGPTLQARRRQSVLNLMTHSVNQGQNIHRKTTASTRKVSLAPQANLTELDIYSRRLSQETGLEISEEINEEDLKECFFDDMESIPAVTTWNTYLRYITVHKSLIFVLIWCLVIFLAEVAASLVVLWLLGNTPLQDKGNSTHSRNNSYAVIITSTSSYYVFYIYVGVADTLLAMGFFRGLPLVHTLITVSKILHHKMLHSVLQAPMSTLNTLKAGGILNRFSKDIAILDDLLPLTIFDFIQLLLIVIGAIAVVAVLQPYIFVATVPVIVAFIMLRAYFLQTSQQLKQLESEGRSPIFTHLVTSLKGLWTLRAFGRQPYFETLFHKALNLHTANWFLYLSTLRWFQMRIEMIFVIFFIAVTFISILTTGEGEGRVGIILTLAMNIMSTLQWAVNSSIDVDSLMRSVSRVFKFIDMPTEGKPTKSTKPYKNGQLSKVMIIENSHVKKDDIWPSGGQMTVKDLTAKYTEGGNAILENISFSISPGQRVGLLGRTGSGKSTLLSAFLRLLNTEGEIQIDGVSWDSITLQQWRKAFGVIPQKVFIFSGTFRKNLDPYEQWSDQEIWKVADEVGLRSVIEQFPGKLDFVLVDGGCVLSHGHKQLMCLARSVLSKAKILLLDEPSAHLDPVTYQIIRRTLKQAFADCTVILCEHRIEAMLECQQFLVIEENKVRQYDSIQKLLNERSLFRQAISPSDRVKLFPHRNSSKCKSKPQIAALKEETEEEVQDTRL
T1 sequence (P13569 whole entry): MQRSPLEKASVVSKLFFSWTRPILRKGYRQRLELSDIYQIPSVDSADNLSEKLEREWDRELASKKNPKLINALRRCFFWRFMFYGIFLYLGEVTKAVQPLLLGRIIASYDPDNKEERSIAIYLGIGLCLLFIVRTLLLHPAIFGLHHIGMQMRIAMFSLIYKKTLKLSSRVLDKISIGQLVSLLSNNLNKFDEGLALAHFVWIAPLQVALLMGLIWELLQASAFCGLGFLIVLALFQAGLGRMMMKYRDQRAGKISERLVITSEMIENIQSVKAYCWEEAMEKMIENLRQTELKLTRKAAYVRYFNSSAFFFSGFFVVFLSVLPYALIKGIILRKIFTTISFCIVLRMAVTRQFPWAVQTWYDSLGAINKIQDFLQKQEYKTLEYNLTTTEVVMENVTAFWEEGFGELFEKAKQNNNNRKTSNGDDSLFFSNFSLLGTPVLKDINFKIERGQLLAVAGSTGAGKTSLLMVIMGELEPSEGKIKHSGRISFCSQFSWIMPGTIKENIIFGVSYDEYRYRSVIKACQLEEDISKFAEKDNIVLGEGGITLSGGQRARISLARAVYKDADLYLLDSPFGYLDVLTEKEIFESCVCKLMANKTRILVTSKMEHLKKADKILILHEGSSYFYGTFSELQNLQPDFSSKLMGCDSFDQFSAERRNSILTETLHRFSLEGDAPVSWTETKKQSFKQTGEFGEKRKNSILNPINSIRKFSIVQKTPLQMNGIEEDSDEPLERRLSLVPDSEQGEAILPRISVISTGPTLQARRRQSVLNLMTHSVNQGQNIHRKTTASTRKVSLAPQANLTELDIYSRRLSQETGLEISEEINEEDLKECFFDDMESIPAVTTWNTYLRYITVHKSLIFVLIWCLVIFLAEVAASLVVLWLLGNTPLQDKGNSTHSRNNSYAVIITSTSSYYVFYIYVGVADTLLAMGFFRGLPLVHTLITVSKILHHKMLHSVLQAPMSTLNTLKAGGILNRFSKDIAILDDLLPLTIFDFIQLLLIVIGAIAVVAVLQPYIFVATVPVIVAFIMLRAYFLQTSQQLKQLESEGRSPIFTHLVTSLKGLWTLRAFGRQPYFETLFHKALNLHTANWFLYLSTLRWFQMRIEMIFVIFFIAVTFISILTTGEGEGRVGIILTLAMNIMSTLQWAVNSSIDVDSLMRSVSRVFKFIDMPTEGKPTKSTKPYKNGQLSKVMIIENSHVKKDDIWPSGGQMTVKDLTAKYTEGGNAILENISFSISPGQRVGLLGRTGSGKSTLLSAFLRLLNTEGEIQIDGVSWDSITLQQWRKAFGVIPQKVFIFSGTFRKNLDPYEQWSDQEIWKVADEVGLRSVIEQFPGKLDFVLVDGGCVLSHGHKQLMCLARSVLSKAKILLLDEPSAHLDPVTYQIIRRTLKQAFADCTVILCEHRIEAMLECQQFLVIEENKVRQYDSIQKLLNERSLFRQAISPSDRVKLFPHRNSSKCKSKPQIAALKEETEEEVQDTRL
T3 sequence (Q5U820 whole entry): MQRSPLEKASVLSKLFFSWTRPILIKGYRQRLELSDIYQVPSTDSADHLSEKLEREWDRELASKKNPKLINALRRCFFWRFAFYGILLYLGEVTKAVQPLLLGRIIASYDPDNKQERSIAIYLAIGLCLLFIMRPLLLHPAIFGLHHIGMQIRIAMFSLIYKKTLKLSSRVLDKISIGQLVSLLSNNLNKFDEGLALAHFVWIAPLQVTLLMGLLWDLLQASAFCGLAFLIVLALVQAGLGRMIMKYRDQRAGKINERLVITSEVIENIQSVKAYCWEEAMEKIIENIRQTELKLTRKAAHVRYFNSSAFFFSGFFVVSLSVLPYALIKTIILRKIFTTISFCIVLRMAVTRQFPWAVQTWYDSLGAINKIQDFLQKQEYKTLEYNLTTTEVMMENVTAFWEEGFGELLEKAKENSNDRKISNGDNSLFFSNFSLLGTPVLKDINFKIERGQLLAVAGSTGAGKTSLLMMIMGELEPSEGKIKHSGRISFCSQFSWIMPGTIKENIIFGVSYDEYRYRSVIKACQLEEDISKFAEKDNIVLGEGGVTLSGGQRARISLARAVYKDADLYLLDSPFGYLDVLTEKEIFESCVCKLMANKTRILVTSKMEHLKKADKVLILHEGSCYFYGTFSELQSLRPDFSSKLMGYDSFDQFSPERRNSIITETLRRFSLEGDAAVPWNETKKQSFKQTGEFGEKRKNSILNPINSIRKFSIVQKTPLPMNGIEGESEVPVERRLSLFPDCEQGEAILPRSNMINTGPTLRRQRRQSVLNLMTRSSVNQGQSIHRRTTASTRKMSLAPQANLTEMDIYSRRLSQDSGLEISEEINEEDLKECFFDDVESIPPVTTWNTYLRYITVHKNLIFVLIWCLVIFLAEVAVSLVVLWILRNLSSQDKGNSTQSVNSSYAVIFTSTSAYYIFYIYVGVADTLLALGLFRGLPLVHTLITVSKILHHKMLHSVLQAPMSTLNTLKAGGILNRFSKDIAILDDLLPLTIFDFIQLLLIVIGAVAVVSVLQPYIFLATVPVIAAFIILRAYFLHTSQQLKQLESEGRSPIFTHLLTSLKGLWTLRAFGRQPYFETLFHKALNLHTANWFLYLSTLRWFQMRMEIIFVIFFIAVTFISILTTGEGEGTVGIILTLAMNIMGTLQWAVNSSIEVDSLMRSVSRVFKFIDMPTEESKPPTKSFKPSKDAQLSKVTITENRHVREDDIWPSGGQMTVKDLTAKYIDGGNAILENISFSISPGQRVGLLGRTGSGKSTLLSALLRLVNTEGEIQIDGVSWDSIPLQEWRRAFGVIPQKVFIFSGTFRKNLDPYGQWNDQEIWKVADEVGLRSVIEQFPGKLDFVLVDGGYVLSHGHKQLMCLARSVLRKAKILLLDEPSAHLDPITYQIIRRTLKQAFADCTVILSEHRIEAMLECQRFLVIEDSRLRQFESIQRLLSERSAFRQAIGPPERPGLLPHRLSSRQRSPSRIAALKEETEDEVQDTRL
Chain of wild-type CFTR Cl- channels (P13569 whole entry): as the sequence (P13569 whole entry) above

open probability (Po) (wild-type human CFTR [1]; [5]): 0.43±0.02
effect on CFTR Cl- currents (concentration-response, FIG. 3) (wild-type human CFTR [2]; -50 mV): stimulated and inhibited
effect on channel activity at positive voltages (wild-type human CFTR [2]; [6]): channel activity is stimulated
effect on channel activity at negative voltages (wild-type human CFTR [2]; [6]): inhibits channel activity
Compound: O=C1OC2(c3ccccc31)c1cc(Br)c(O)c(Br)c1Oc1c2cc(Br)c(O)c1Br [eosin Y]

Compound: O=C(O)c1c(Cl)c(Cl)c(Cl)c(Cl)c1-c1c2cc(Br)c(=O)c(Br)c-2oc2c(Br)c(O)c(Br)cc12 [phloxine B]
effect on KATP currents in pancreatic β-cells (KATP currents): inhibits KATP currents
effect on iodide efflux in the absence of cAMP agonists ([3]; 10 μM): without effect
effect on cAMP-stimulated iodide efflux ([3]; 10 μM with cAMP agonists): enhanced both the speed and magnitude
interburst interval of ΔF508 (ΔF508 CFTR): without altering
mean burst duration of ΔF508 CFTR Cl channels (ΔF508 CFTR): dramatically prolonging
increase of the Po of ΔF508 (ΔF508 CFTR; ATP 1.0 mM, PKA 75 nM): 1.5 fold
open probability (Po) (wild-type human CFTR [1]; [5]): large increase in Po
single-channel current amplitude (i) (wild-type human CFTR [1]; [5]): small, but significant (P<0.05), reduction
interburst interval (wild-type human CFTR [1]; 1 μM, single active channel): no change; also recorded: without effect
mean burst duration (wild-type human CFTR [1]; 1 μM, single active channel): large increase in the duration of bursts; also recorded: significantly increased
Po in the presence of ADP (wild-type human CFTR [1]; ADP 0.3 mM + phloxine B 1 μM, ATP 0.3 mM, PKA 75 nM): 0.43±0.05
maximum Po (Pomax), Michaelis-Menten fit (wild-type human CFTR [1]; in the presence of phloxine B 1 μM): 0.72
Ki (wild-type human CFTR [2]): 17 µM
reversibility of modulation of CFTR (wild-type human CFTR [2]): partially reversible
effect on CFTR Cl- currents (concentration-response, FIG. 3) (wild-type human CFTR [2]; -50 mV): stimulated and inhibited
n (Hill coefficient) of current inhibition (wild-type human CFTR [2]; -50 mV): 2
concentrations causing concentration-dependent decrease in CFTR Cl- current (wild-type human CFTR [2]; ATP 0.3 mM, PKA 75 nM, -50 mV): 20 to 50 µM
concentrations that stimulated CFTR Cl- currents (wild-type human CFTR [2]; ATP 0.3 mM, PKA 75 nM, -50 mV): 1 to 5 µM
effect on the activity of CFTR Cl- channels (wild-type human CFTR [2]; added to intracellular solution in the absence of either ATP or PKA): without effect
effect on channel activity at positive voltages (wild-type human CFTR [2]; [6]): relieve channel block by phloxine B (40 μM), but do not stimulate channel activity
concentration that maximally stimulated channel activity (wild-type human CFTR [2]): 5 µM

open probability (Po) (wild-type human CFTR [1]; [5]): 0.40±0.08
effect on CFTR Cl- currents (concentration-response, FIG. 3) (wild-type human CFTR [2]; -50 mV): stimulated and inhibited
concentrations that stimulated CFTR Cl- currents (wild-type human CFTR [2]; ATP 0.3 mM, PKA 75 nM, -50 mV): 0.1 to 1.0 µM
concentration that maximally stimulated channel activity (wild-type human CFTR [2]): 1 µM
Compound: O=C1OC2(c3cc(I)c(O)c(I)c3Oc3c2cc(I)c(O)c3I)c2c(Cl)c(Cl)c(Cl)c(Cl)c21 [bengal rose B]

Compound: Nc1ncnc2c1ncn2[C@@H]1O[C@H](COP(=O)(O)OP(=O)(O)O)[C@@H](O)[C@H]1O [ADP, reference compound]
Po (wild-type human CFTR [1]; ADP 0.3 mM alone, ATP 0.3 mM, PKA 75 nM): 0.21±0.02
Po as % of the control value (wild-type human CFTR [1]; ADP 0.3 mM, ATP 0.3 mM, PKA 75 nM): 49±1%

effect on CFTR Cl- currents (concentration-response, FIG. 3) (wild-type human CFTR [2]; -50 mV): only inhibited
Compound: O=C1OC2(c3ccc(O)cc3Oc3cc(O)ccc32)c2c(Cl)c(Cl)c(Cl)c(Cl)c21 [tetrachlorofluorescein]

Compound: O=C1OC2(c3ccc(O)cc3Oc3cc(O)ccc32)c2ccccc21 [fluorescein]
effect on CFTR Cl- currents (concentration-response, FIG. 3) (wild-type human CFTR [2]; -50 mV): only inhibited

Compound: Nc1ncnc2c1ncn2[C@@H]1O[C@H](COP(=O)(O)OP(=O)(O)OP(=O)(O)O)[C@@H](O)[C@H]1O [ATP, reference compound]
EC50 (wild-type human CFTR [2]; PKA-phosphorylated channels, read-out: EC50 for activation of CFTR Cl- channels by intracellular ATP): 300 µM

Compound: O=c1c(-c2ccc(O)cc2)coc2cc(O)cc(O)c12 [genistein, 5,7-dihydrox-3-(4-hydroxyphenyl)-4H-1-benzopyran-4-one]
concentration that maximally stimulated wild-type CFTR Cl- channels [4]: 35 µM
